Article PMC3631187, “Structural and Functional Insights into Saccharomyces cerevisiae Riboflavin Biosynthesis Reductase RIB7” (PLoS ONE, 2013)
Changes are numbered by the printed parent chain.

B1: Saccharomyces cerevisiae RIB7 (enzyme)
chain: MSLTPLCEDLPQFLQNYLPNAGQTENTIVPFVTLTYAQSLDARVSRGPGVRTTISHPETKTMTHYLRHHHDGILVGSGTVLADNPGLNCKWGPDPAANSPRPIIIDTKQKWRFDGSKMQELFIKRQGKPPIVVVTSEPIIKEQHVDYAICPINDTTKLVDWKKLFEILKEEFNIRSVMVEGGANVINQLLLRSDIVNSLIITIGSTFLGSSGTEVSPPQTVNLKDMSWWKGITDVVLCARLADD
notes: RIB7, riboflavin biosynthesis reductase of Saccharomyces cerevisiae; RIB7 gene amplified from genomic DNA and cloned BamHI/XhoI into pGEX6p-1; Wild type; A seleno-methionine derivative was used only for phasing; Residues left by the PreScission site after cleavage are not described; also called ScRIB7; riboflavin biosynthesis reductase RIB7; source: E. coli BL21 (DE3), purified …

Key:
[1] = target: T1, ScRIB7 (Saccharomyces cerevisiae, UniProt P33312, D83A); assay: isothermal titration calorimetry; type: binding; conditions: 80 µM protein titrated with 800 µM NADPH in PBS
T1 construct: gene RIB7; recombinant in E. coli BL21(DE3), pGEX6p-1, GST tag removed with PreScission protease; homodimer, ~43 kDa by sedimentation
T1 sequence (P33312 1-244 D83A): B1 chain with D83A

[2] = target: T2, ScRIB7 (Saccharomyces cerevisiae, UniProt P33312); assay: isothermal titration calorimetry; type: binding; conditions: 80 µM protein titrated with 800 µM NADPH in PBS; crystal structure of the complex (2.35 Å) also solved
T2 construct: gene RIB7; recombinant in E. coli BL21(DE3), pGEX6p-1, GST tag removed with PreScission protease; homodimer, ~43 kDa by sedimentation
T2 sequence (P33312 1-244): B1 chain

[3] = target: T3, ScRIB7 (Saccharomyces cerevisiae, UniProt P33312, T79A); assay: isothermal titration calorimetry; type: binding; conditions: 80 µM protein titrated with 800 µM NADPH in PBS
T3 construct: gene RIB7; recombinant in E. coli BL21(DE3), pGEX6p-1, GST tag removed with PreScission protease; homodimer, ~43 kDa by sedimentation
T3 sequence (P33312 1-244 T79A): B1 chain with T79A

[4] = target: the molecule itself; assay: SEC; gel filtration, data not shown; conditions of this run not told

Molecule	binding constant [1]	binding constant [2]	no interaction heat detected [3]	stoichiometry N [4]
NC(=O)C1=CN([C@@H]2O[C@H](COP(=O)(O)OP(=O)(O)OC[C@H]3O[C@@H](n4cnc5c(N)ncnc54)[C@H](OP(=O)(O)O)[C@@H]3O)[C@@H](O)[C@H]2O)C=CC1 [NADPH]	The binding constant of the D83A mutant with NADPH was similar to that of the wild type	Interactions between enzymes and NADPH were detected by isothermal titration calorimetry using nano-ITC2g	no interaction heat was detected for the T79A mutant	–
B1	–	–	–	2
